Data published in paper PMC6208908, “Field template-based design and biological evaluation of new sphingosine kinase 1 inhibitors” (Breast Cancer Research and Treatment, 2018).
“Also recorded” adds a separate entry of the source.

Tests used:
[1] = target: recombinant SK1 (Homo sapiens, UniProt Q9NYA1); assay: SK1 activity assay, cell-free (recombinant SK1 extract, radiolabelling); type: biochemical
Procedure: (§1) SK assay was performed using radiolabeling as previously described, in conditions favouring SK1 or SK2 activity as required.
The synthesised compounds were then screened for SK1 inhibition. Compounds SK-A to SK-F and SKI-II (commercial inhibitor of SK used as positive control with reported IC50 0.5 µM [14]) at 1 µM were incubated in the presence of recombinant SK1 extract (in excess), 1 µM of ATP, and exogenous 1 µM sphingosine for 1 h followed by measurement of SK1 activity.
Fig. 2 Inhibition of sphingosine kinase 1 in cell-free extract and in vitro. a 1 µM of compounds SK-A to SK-F and SKI-II (commercial inhibitor of SK used as a positive control) were incubated in the presence of recombinant SK1 extract (in excess), 1 µM of ATP, and 1 µM exogenous sphingosine for 1 h. b MDA-MB-231 cells were incubated with 1 µM of compounds SK-A to SK-F and SKI-II for 6 h. SK1 activity was measured as described in materials and methods. Columns, means of three independent experiments normalised to vehicle; bars, SEM. (ns, non-significant; *p < 0.05; **p < 0.01)
(§2) SK1 activity was determined in the presence of triton X-100 and SK2 activity was measured in the presence of high salt concentrations, conditions that favour SK1 and SK2, respectively. […] Km for SK1 was 6.97 ± 1.20 µM, Vmax 98 ± 4 µM/min/mg protein and Ki for SK-F 0.46 ± 0.1 µM. […] Some SK inhibitors such as SKI-II were previously shown to induce proteasomal degradation of SK1 [48, 49].

[2] = target: T1, recombinant SK2 (Homo sapiens, UniProt Q9NRA0); assay: SK2 activity assay with recombinant SK2 (high salt), Lineweaver-Burk; type: biochemical; conditions: Lineweaver-Burk plot, high salt (Figure S8B)
T1 sequence (Q9NRA0 1-654): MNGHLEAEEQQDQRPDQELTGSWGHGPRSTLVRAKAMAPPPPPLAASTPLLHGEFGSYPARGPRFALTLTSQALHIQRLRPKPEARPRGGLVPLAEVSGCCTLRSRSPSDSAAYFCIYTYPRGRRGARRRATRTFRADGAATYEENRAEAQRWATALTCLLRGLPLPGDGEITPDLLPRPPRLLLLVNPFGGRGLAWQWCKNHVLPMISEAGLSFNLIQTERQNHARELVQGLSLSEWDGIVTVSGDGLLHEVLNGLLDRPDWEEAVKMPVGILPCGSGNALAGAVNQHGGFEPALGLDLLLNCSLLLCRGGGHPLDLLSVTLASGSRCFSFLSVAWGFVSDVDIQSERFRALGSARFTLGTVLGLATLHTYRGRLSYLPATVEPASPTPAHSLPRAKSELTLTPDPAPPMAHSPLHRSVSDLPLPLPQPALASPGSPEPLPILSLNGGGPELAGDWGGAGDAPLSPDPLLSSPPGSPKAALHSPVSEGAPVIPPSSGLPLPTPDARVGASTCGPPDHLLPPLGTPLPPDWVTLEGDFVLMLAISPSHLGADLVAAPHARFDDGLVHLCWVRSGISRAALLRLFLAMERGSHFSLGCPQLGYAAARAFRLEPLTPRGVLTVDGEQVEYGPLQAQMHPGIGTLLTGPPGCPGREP
Procedure: as §1, §2

[3] = test system: 4T1 breast cancer allografts; assay: 4T1 breast cancer allograft, tumour volume; type: in vivo, BALB/c nude mice; conditions: 5 mg/kg each drug i.p. twice a week for 2 weeks; control 468 mm^3
Procedure: Breast cancer allografts were established in 6–8-week-old BALB/c nude mice by injection of 10^6 4T1 cells into their mammary pad. Two weeks after implantation, mice were randomised into treatment groups (n = 6/group) and treated twice a week for 2 weeks with intraperitoneal injections of dimethyl sulfoxide (DMSO), 5 mg/kg DTX, 5 mg/kg SK-F, 5 mg/kg DTX + 5 mg/kg SK-F. One day after the last treatment, all mice were euthanized and blood was collected. Tumour long and short radii were measured using calipers and tumour volume (v) was calculated using the formula v = 4/3 πab^2 (a – long radius, b – short radius). Mice and individual organs were weighed and primary tumours were then processed for analysis of SK1 activity as described above. Full blood count and liver function test analysis was done in the Hammersmith hospital biochemical lab. […]
(§3) Fig. 5 Effect of compound SK-F on breast tumour growth and SK1 activity. […] Two weeks after implantation, mice were randomised into treatment groups (n = 6/group) and treated twice a week for 2 weeks with intraperitoneal injections of: DMSO, 5 mg/kg DTX, 5 mg/kg SK-F, 5 mg/kg DTX + 5 mg/kg SK-F. a Tumour volume in the different treatment groups of 4T1 breast cancer implanted in mouse mammary fat pad. b SK1 activity in tumours was measured using radiolabelling. […]

[4] = target: T2, tumour SK1 (Mus musculus, UniProt Q8CI15); assay: SK1 activity in 4T1 allograft tumours; type: in vivo, BALB/c nude mice; conditions: 5 mg/kg each drug i.p. twice a week for 2 weeks
T2 construct: primary tumours were then processed for analysis of SK1 activity as described above; from tissue; host or cells: 4T1 breast tumour allografts from BALB/c nude mice
T2 sequence (Q8CI15 whole entry): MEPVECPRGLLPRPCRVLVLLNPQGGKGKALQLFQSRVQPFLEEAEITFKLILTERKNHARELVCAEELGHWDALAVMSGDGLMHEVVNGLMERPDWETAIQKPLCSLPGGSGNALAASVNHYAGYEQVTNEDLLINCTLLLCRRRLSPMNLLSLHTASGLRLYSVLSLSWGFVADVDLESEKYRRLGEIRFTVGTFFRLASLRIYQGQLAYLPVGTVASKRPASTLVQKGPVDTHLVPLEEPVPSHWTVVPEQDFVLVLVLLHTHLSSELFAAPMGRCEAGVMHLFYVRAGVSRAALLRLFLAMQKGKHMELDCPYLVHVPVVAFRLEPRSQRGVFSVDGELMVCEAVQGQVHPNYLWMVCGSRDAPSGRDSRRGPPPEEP
Procedure: Breast cancer allografts were established in 6–8-week-old BALB/c nude mice by injection of 10^6 4T1 cells into their mammary pad. Two weeks after implantation, mice were randomised into treatment groups (n = 6/group) and treated twice a week for 2 weeks with intraperitoneal injections of dimethyl sulfoxide (DMSO), 5 mg/kg DTX, 5 mg/kg SK-F, 5 mg/kg DTX + 5 mg/kg SK-F. One day after the last treatment, all mice were euthanized and blood was collected. Tumour long and short radii were measured using calipers and tumour volume (v) was calculated using the formula v = 4/3 πab^2 (a – long radius, b – short radius). Mice and individual organs were weighed and primary tumours were then processed for analysis of SK1 activity as described above. Full blood count and liver function test analysis was done in the Hammersmith hospital biochemical lab.
as §3

[5] = target: T3, SK1 in 4T1 cells (Mus musculus, UniProt Q8CI15); assay: SK1 activity in 4T1 cells in vitro (Figure S10); type: cell-based, murine
T3 construct: endogenous in cells; host or cells: 4T1
T3 sequence (Q8CI15 whole entry): as above

Chain of recombinant SK1 (Q9NYA1 whole entry): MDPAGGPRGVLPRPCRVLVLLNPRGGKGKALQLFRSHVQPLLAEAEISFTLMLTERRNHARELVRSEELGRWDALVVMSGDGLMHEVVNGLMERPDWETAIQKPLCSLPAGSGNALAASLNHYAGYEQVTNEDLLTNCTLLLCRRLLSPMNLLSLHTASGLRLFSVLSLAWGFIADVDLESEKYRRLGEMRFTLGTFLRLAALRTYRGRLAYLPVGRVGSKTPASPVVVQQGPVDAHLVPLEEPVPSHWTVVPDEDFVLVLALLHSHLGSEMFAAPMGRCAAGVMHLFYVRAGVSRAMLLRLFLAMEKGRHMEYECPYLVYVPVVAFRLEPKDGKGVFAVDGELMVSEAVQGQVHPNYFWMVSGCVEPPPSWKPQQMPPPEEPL

For `CCCCCCCCc1ccc(NC(=O)c2ccccc2)cc1` [SK-F], the “inhibition of SK1 activity in cell-free settings” value ([1]; 1 µM compound, recombinant SK1 extract in excess, 1 µM ATP, 1 µM sphingosine, 1 h) was “most potent inhibitor of SK1 activity; also recorded: statistically significant inhibition”, the IC50 ([1]; Figure S7, read-out: IC50 for purified enzyme (SK1 activity dose response)) was 0.92 µM and the “mode of SK1 inhibition” value ([1]; Lineweaver-Burk plot, increasing sphingosine (Figure S8A)) was “competitive inhibitor”. For the same compound, the Ki ([1]; recombinant SK1, increasing sphingosine, triton X-100, Lineweaver-Burk) was 0.46 ± 0.1 µM, the “inhibition of SK2” value [2] was “no inhibition” and the “tumour volume at the end of the study” value [3] was 371 mm^3. The “tumour SK1 activity” value [4] was “significantly reduced” and the “SK1 activity in 4T1 cells” value [5] was “significant inhibition”.
